From patent US5336673A, “3-substituted cephem compounds” (priority 1990, dated 1994)
Values after ≈ are worked out from the molar mass of the structure shown.

Key:
Escherichia coli DC O = test: Antibacterial activity, MIC by Agar dilution method, standard test strain 8; type: cell-based; conditions: Escherichia coli, 18 h
Summary of the method: (§1)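 Two-fold serial dilutions were dispersed in Mueller Hinton agar at 100~0.002 μg/ml final and inoculated with 10^7 CFU/ml test strain. Plates were incubated 18 h at 37° C. MIC taken as the lowest compound concentration with no growth.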

Escherichia coli DC 2 = test: Antibacterial activity, MIC by Agar dilution method, standard test strain 9; type: cell-based; conditions: Escherichia coli, DC2, 18 h
Summary of the method: as §1

Escherichia coli 1507E = test: Antibacterial activity, MIC by Agar dilution method, standard test strain 11; type: cell-based; conditions: Escherichia coli, 1507E, 18 h
Summary of the method: as §1

[1] = test system: Pseudomonas aeruginosa 1592E; test: Antibacterial activity, MIC by Agar dilution method, standard test strain 13; type: cell-based; conditions: 10^7 CFU/ml, 37° C., 18 hours
Summary of the method: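 Agar dilution MIC: two-fold serial dilutions (100~0.002 μg/ml) in Mueller Hinton agar, inoculated with P. aeruginosa 1592E at 10^7 CFU/ml and incubated 18 h at 37 °C. MIC is the lowest concentration with no growth.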

[2] = test system: Pseudomonas aeruginosa 1771; test: Antibacterial activity, MIC by Agar dilution method, standard test strain 14; type: cell-based; conditions: 10^7 CFU/ml, 37° C., 18 hours
Summary of the method: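 Two-fold serial dilutions in Mueller Hinton agar at 100~0.002 μg/ml final, inoculated at 10^7 CFU/ml and incubated 37° C for 18 hours. MIC taken as lowest concentration with no growth.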

[3] = test system: Pseudomonas aeruginosa 1771M; test: Antibacterial activity, MIC by Agar dilution method, standard test strain 15; type: cell-based; conditions: 18 h
Summary of the method: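 Agar dilution on Mueller Hinton agar with two-fold compound dilutions at 100~0.002 μg/ml; inoculum 10^7 CFU/ml, incubation 37 °C for 18 hours. MIC taken as lowest concentration with no growth.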

Salmonella typhimurium = test: Antibacterial activity, MIC by Agar dilution method, standard test strain 16; type: cell-based; conditions: Salmonella enterica, 10^7 CFU/ml, 37° C., 18 hours
Summary of the method: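 Two-fold serial dilutions dispersed in Mueller Hinton agar at 100~0.002 μg/ml; inoculated at 10^7 CFU/ml and incubated 37 °C for 18 h. MIC taken as lowest concentration with no visible growth.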

Klebsiella oxytoca 1082E = test: Antibacterial activity, MIC by Agar dilution method, standard test strain 17; type: cell-based; conditions: 10^7 CFU/ml, 37° C., 18 hours
Summary of the method: as §1

[4] = test system: Klebsiella aerogenes 1522E; test: Antibacterial activity, MIC by Agar dilution method, standard test strain 18; type: cell-based; conditions: Klebsiella aerogenes, 1522E, 18 h
Summary of the method: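 Agar dilution in Mueller Hinton agar with two-fold serial compound dilutions at 100~0.002 μg/ml; inoculum 10^7 CFU/ml, incubated 37° C for 18 hours. MIC taken as lowest concentration with no visible growth.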

Enterobacter cloacae P99 = test: Antibacterial activity, MIC by Agar dilution method, standard test strain 19; type: cell-based; conditions: P99, 18 h
Summary of the method: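 Agar dilution: two-fold serial compound dilutions spanning 100~0.002 μg/ml in Mueller Hinton agar, inoculated at 10^7 CFU/ml. Plates incubated 18 hours at 37° C. MIC taken as the lowest concentration with no growth.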

D Streptococcus II = test: MIC against clinically isolated strains; type: cell-based; conditions: 18 h, 20 clinical isolates
Procedure: (§2) The antibacterial activity was determined by an Agar dilution method as described below.
(§3) That is, the two-fold serial dilutions of the antibacterial compounds (1000 μg compound/ml) were prepared and dispersed in Muller Hinton Agar in a petri dish to a concentration of 100~0.002 μg/ml. The culture broths of standard test strains were inoculated on the medium to a concentration 10^7 CFU/ml, and incubated at 37° C. for 18 hours. The concentration of compounds(I) at which the strains were not grown was regarded as minimum inhibition concentration (MIC).

D Streptococcus I = test: MIC against clinically isolated strains; type: cell-based; conditions: 18 h, 20 clinical isolates
Procedure: as §2, §3

Enterobacter cloacae = test: MIC against clinically isolated strains; type: cell-based; conditions: 20 clinical isolates
Procedure: as §2, §3

Enterococcus II = test: MIC against clinically isolated strains; type: cell-based; conditions: 20 clinical isolates
Procedure: as §2, §3

Enterococcus I = test: MIC against clinically isolated strains; type: cell-based; conditions: 18 h, 20 clinical isolates
Procedure: as §2, §3

Escherichia coli = test: MIC against clinically isolated strains; type: cell-based; conditions: 18 h, 20 clinical isolates
Procedure: as §2, §3

Morganella morganil = test: MIC against clinically isolated strains; type: cell-based; conditions: 18 h, 5 clinical isolates
Procedure: as §2, §3

Proteus mirabilis = test: MIC against clinically isolated strains; type: cell-based; conditions: 18 h, 4 clinical isolates
Procedure: as §2, §3

Proteus vulgaris = test: MIC against clinically isolated strains; type: cell-based; conditions: 18 h, 5 clinical isolates
Procedure: as §2, §3

Providencia rettgeri = test: MIC against clinically isolated strains; type: cell-based; conditions: 18 h, 6 clinical isolates
Procedure: as §2, §3

Pseudomonas II = test: MIC against clinically isolated strains; type: cell-based; conditions: 18 h, 19 clinical isolates
Procedure: as §2, §3

Pseudomonas I = test: MIC against clinically isolated strains; type: cell-based; conditions: 18 h, 19 clinical isolates
Procedure: as §2, §3

Pseudomonas aeruginosa = test: MIC against clinically isolated strains; type: cell-based; conditions: 18 h, 20 clinical isolates
Procedure: as §2, §3

Serratia spp = test: MIC against clinically isolated strains; type: cell-based; conditions: 18 h, 20 clinical isolates
Procedure: as §2, §3

Streptococcus II = test: MIC against clinically isolated strains; type: cell-based; conditions: 18 h, 17 clinical isolates
Procedure: as §2, §3

Streptococcus I = test: MIC against clinically isolated strains; type: cell-based; conditions: 20 clinical isolates
Procedure: as §2, §3

[5] = biological target: T1, β-lactamase from Enterobacter cloacae P99 (Enterobacter cloacae, UniProt P05364); test: Stability against β-lactamase, relative hydrolysis; type: biochemical; conditions: Enterobacter cloacae P99 enzyme; 100 μM; relative(percentage), Cephaloridine taken as 100; OD at 260 nm
T1 construct: directly isolated from Enterobacter cloacae P99, E. coli TEM and Citrobacter freundii; endogenous in cells; host or cells: Enterobacter cloacae P99
T1 sequence (P05364 21-381): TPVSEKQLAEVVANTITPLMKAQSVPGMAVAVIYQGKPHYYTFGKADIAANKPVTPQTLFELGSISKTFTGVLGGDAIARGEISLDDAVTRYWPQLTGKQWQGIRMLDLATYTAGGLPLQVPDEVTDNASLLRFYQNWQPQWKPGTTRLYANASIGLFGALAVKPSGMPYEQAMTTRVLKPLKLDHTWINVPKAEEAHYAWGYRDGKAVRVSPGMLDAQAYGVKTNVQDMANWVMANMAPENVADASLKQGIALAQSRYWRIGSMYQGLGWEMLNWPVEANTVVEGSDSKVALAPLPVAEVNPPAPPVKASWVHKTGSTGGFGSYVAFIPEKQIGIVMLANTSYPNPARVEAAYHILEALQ
Procedure: The β-lactamases employed in the test were directly isolated from Enterobacter cloacae P99, E. coli TEM and Citrobacter freundii, and the antibiotics for comparison were Cephaloridine, Cephradine, Cefoperazone and Cefotaxime.
The relative hydrolysis of various compounds were calculated relative to the OD of Cephaloridine.

[6] = test system: Streptococcus pyogenes 77A; test: Treatment effect on systemic infection model; type: in vivo; conditions: im, read-out: PD50
Procedure: The antibacterial activity test on systemic infection model was carried out using the compound of Example 18 as follows: 0.3 ml of diluted solution containing lethal dose of strain was administered intraperitoneally to the test animal, and then 5 to 0.078 mg/kg of compound was administered intramuscularly.

[7] = test system: β-lactamase producing strains such as Pseudomonas aeruginosa and Enterobacter cloacae; test: Antibacterial activity against β-lactamase producing strains (summary in words); type: cell-based
Procedure: as §2, §3

[8] = test system: Gram-positive strains, for example, Staphylococcus aureus; test: Antibacterial activity against Gram-positive strains (summary in words); type: cell-based; conditions: e.g. Staphylococcus aureus resistant to third-generation cephalosporins
Procedure: as §2, §3

CON=C(C(=O)NC1C(=O)N2C(C(=O)[O-])=C(C[n+]3nn(N)c4ccccc43)CSC12)c1csc(N)n1 [Example 18, (6R,7R)-7-[(Z)-2-(2-aminothiazol-4-yl)-2-methoxyiminoacetamido]-3-[(1-aminobenzotriazol-3-ium)methyl]-ceph-3-em-4-carboxylate]
MIC (Escherichia coli DC O): 0.025 µg/mL (≈ 0.0472 µM)
MIC (Escherichia coli DC 2): 0.025 µg/mL (≈ 0.0472 µM)
MIC (Escherichia coli 1507E): 0.025 µg/mL (≈ 0.0472 µM)
MIC [1]: 1.56 µg/mL (≈ 2.95 µM)
MIC [2]: 1.56 µg/mL (≈ 2.95 µM)
MIC [3]: 0.781 µg/mL (≈ 1.47 µM)
MIC (Salmonella typhimurium): 0.195 µg/mL (≈ 0.368 µM)
MIC (Klebsiella oxytoca 1082E): 0.049 µg/mL (≈ 0.0925 µM)
MIC [4]: 0.025 µg/mL (≈ 0.0472 µM)
MIC (Enterobacter cloacae P99): 12.5 µg/mL (≈ 23.6 µM)
MIC (D Streptococcus II): 3.12 to 100 µg/mL (≈ 5.9 to 189 µM)
MIC50 (D Streptococcus II): 25 µg/mL (≈ 47.2 µM)
MIC90 (D Streptococcus II): 50 µg/mL (≈ 94.4 µM)
MIC (D Streptococcus I): 3.12 to 100 µg/mL (≈ 5.9 to 189 µM)
MIC50 (D Streptococcus I): 12.5 µg/mL (≈ 23.6 µM)
MIC90 (D Streptococcus I): 100 µg/mL (≈ 189 µM)
MIC Range (Enterobacter cloacae): 7 to 12500 ng/mL
MIC50 (Enterobacter cloacae; 18 h): 0.025 µg/mL (≈ 0.0472 µM)
MIC90 (Enterobacter cloacae; 18 h): 0.391 µg/mL (≈ 0.738 µM)
MIC Range (Enterococcus II): 4 to 25000 ng/mL
MIC50 (Enterococcus II; 18 h): 0.025 µg/mL (≈ 0.0472 µM)
MIC90 (Enterococcus II; 18 h): 0.098 µg/mL (≈ 0.185 µM)
MIC (Enterococcus I): 0.007 to 0.195 µg/mL (≈ 0.0132 to 0.368 µM)
MIC50 (Enterococcus I): 0.025 µg/mL (≈ 0.0472 µM)
MIC90 (Enterococcus I): 0.049 µg/mL (≈ 0.0925 µM)
MIC (Escherichia coli): 0.007 to 0.195 µg/mL (≈ 0.0132 to 0.368 µM)
MIC50 (Escherichia coli): 0.013 µg/mL (≈ 0.0245 µM)
MIC90 (Escherichia coli): 0.025 µg/mL (≈ 0.0472 µM)
MIC (Morganella morganil): 0.004 to 0.025 µg/mL (≈ 0.00755 to 0.0472 µM)
MIC50 (Morganella morganil): 0.013 µg/mL (≈ 0.0245 µM)
MIC90 (Morganella morganil): 0.025 µg/mL (≈ 0.0472 µM)
MIC (Proteus mirabilis): 0.013 to 0.098 µg/mL (≈ 0.0245 to 0.185 µM)
MIC50 (Proteus mirabilis): 0.013 µg/mL (≈ 0.0245 µM)
MIC90 (Proteus mirabilis): 0.098 µg/mL (≈ 0.185 µM)
MIC (Proteus vulgaris): 0.025 to 0.195 µg/mL (≈ 0.0472 to 0.368 µM)
MIC50 (Proteus vulgaris): 0.098 µg/mL (≈ 0.185 µM)
MIC90 (Proteus vulgaris): 0.195 µg/mL (≈ 0.368 µM)
MIC (Providencia rettgeri): 0.007 to 0.195 µg/mL (≈ 0.0132 to 0.368 µM)
MIC50 (Providencia rettgeri): 0.025 µg/mL (≈ 0.0472 µM)
MIC90 (Providencia rettgeri): 0.098 µg/mL (≈ 0.185 µM)
MIC (Pseudomonas II): 0.391 to 12.5 µg/mL (≈ 0.738 to 23.6 µM)
MIC50 (Pseudomonas II): 1.56 µg/mL (≈ 2.95 µM)
MIC90 (Pseudomonas II): 6.25 µg/mL (≈ 11.8 µM)
MIC (Pseudomonas I): 0.195 to 12.5 µg/mL (≈ 0.368 to 23.6 µM)
MIC50 (Pseudomonas I): 1.56 µg/mL (≈ 2.95 µM)
MIC90 (Pseudomonas I): 6.25 µg/mL (≈ 11.8 µM)
MIC (Pseudomonas aeruginosa): 1.56 to 25 µg/mL (≈ 2.95 to 47.2 µM)
MIC50 (Pseudomonas aeruginosa): 6.25 µg/mL (≈ 11.8 µM)
MIC90 (Pseudomonas aeruginosa): 12.5 µg/mL (≈ 23.6 µM)
MIC (Serratia spp): 0.013 to 0.098 µg/mL (≈ 0.0245 to 0.185 µM)
MIC50 (Serratia spp): 0.025 µg/mL (≈ 0.0472 µM)
MIC90 (Serratia spp): 0.049 µg/mL (≈ 0.0925 µM)
MIC (Streptococcus II): 2 to 13 ng/mL (≈ 0.00378 to 0.0245 µM)
MIC50 (Streptococcus II): 4 ng/mL (≈ 0.00755 µM)
MIC90 (Streptococcus II): 7 ng/mL (≈ 0.0132 µM)
MIC Range (Streptococcus I): 4 to 12500 ng/mL
MIC50 (Streptococcus I; 18 h): 0.025 µg/mL (≈ 0.0472 µM)
MIC90 (Streptococcus I; 18 h): 6.25 µg/mL (≈ 11.8 µM)
Relative hydrolysis by β-lactamase [5]: 0.0
ED50 [6]: 0.27 mg/kg
antibacterial activity (in words) [7]: superior activity
antibacterial activity (in words) [8]: strong activity
